Measurements published in US12077503B2, “Substituted cyclic amides and their use as herbicides” (FMC CORPORATION, priority 2015, dated 2024).

Tests used:
Assay type in all cases: in vivo
Kochia (Kochia scoparia) [1] = experiment: Test A preemergence; conditions: Bassia scoparia, pre-emergence, 240 h; for pest or weed control at 125 g/ha: 125 g ai/ha, Preemergence, visual injury rating after approximately 10 d, read-out: Kochia plant response rating (0 to 100 scale, 0 is no effect, 100 is complete control); for pest or weed control at 500 g/ha: 500 g ai/ha, preemergence, visual injury rating about 10 d after treatment, 0 to 100 scale (0 no effect, 100 complete control), read-out: Kochia plant response rating
Method in brief: (§1)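 Seeded soil received test chemicals as a preemergence directed spray, and seedlings at one to two leaves, 2–10 cm tall, received them postemergence, in a non-phytotoxic, surfactant-containing solvent mixture. Pots were held in a greenhouse for approximately 10 d, then rated for injury from 0, no effect, to 100, complete control.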

[2] = tested on: barnyardgrass (Echinochloa crus-galli); experiment: Test A preemergence; conditions: Echinochloa crus-galli, pre-emergence, 240 h; for pest or weed control at 125 g/ha: 125 g ai/ha, Preemergence, visual injury rating after approximately 10 d, read-out: Barnyardgrass plant response rating (0 to 100 scale, 0 is no effect, 100 is complete control); for pest or weed control at 500 g/ha: 500 g ai/ha, preemergence, visual injury rating about 10 d after treatment, 0 to 100 scale (0 no effect, 100 complete control), read-out: Barnyardgrass plant response rating
Method in brief: as §1

[3] = tested on: giant foxtail (Setaria faberii); experiment: Test A preemergence; conditions: Setaria faberi, pre-emergence, 240 h; for pest or weed control at 125 g/ha: 125 g ai/ha, Preemergence, visual injury rating after approximately 10 d, read-out: Foxtail, Giant plant response rating (0 to 100 scale, 0 is no effect, 100 is complete control); for pest or weed control at 500 g/ha: 500 g ai/ha, preemergence, visual injury rating about 10 d after treatment, 0 to 100 scale (0 no effect, 100 complete control), read-out: Foxtail, Giant plant response rating
Method in brief: as §1

[4] = tested on: pigweed (Amaranthus retroflexus); experiment: Test A preemergence; conditions: Amaranthus retroflexus, pre-emergence, 240 h; for pest or weed control at 125 g/ha: 125 g ai/ha, Preemergence, visual injury rating after approximately 10 d, read-out: Pigweed plant response rating (0 to 100 scale, 0 is no effect, 100 is complete control); for pest or weed control at 500 g/ha: 500 g ai/ha, preemergence, visual injury rating about 10 d after treatment, 0 to 100 scale (0 no effect, 100 complete control), read-out: Pigweed plant response rating
[5] = tested on: ragweed (common ragweed, Ambrosia elatior); experiment: Test A preemergence; conditions: Ambrosia artemisiifolia, pre-emergence, 240 h; for pest or weed control at 125 g/ha: 125 g ai/ha, Preemergence, visual injury rating after approximately 10 d, read-out: Ragweed plant response rating (0 to 100 scale, 0 is no effect, 100 is complete control); for pest or weed control at 500 g/ha: 500 g ai/ha, preemergence, visual injury rating about 10 d after treatment, 0 to 100 scale (0 no effect, 100 complete control), read-out: Ragweed plant response rating
Method in brief: as §1

[6] = tested on: ryegrass, Italian (Italian ryegrass, Lolium multiflorum); experiment: Test A preemergence; conditions: Lolium multiflorum, pre-emergence, 240 h; for pest or weed control at 125 g/ha: 125 g ai/ha, Preemergence, visual injury rating after approximately 10 d, read-out: Ryegrass, Italian plant response rating (0 to 100 scale, 0 is no effect, 100 is complete control); for pest or weed control at 500 g/ha: 500 g ai/ha, preemergence, visual injury rating about 10 d after treatment, 0 to 100 scale (0 no effect, 100 complete control), read-out: Ryegrass, Italian plant response rating
Method in brief: as §1

[7] = tested on: Galium (catchweed bedstraw, Galium aparine); experiment: Test A postemergence; conditions: Galium, post-emergence, 240 h, 125 g ai/ha, Postemergence; visual injury after approximately 10 d; 0 to 100 scale where 0 is no effect and 100 is complete control; read-out: Plant response rating, Galium
Method in brief: as §1

Kochia (Kochia scoparia) [8] = experiment: Test A postemergence; conditions: Bassia scoparia, post-emergence, 240 h, 125 g ai/ha, Postemergence; visual injury after approximately 10 d; 0 to 100 scale where 0 is no effect and 100 is complete control; read-out: Plant response rating, Kochia
Method in brief: as §1

[9] = tested on: barnyardgrass (Echinochloa crus-galli); experiment: Test A postemergence; conditions: Echinochloa crus-galli, post-emergence, 240 h, 125 g ai/ha, Postemergence; visual injury after approximately 10 d; 0 to 100 scale where 0 is no effect and 100 is complete control; read-out: Plant response rating, Barnyardgrass
Method in brief: as §1

[10] = tested on: blackgrass (Alopecurus myosuroides); experiment: Test A postemergence; conditions: Alopecurus myosuroides, post-emergence, 240 h, 125 g ai/ha, Postemergence; visual injury after approximately 10 d; 0 to 100 scale where 0 is no effect and 100 is complete control; read-out: Plant response rating, Blackgrass
Method in brief: as §1

corn (Zea mays) = experiment: Test A postemergence; conditions: Zea mays, post-emergence, 240 h, 125 g ai/ha, Postemergence; visual injury after approximately 10 d; 0 to 100 scale where 0 is no effect and 100 is complete control
Method in brief: as §1

[11] = tested on: giant foxtail (Setaria faberii); experiment: Test A postemergence; conditions: Setaria faberi, post-emergence, 240 h, 125 g ai/ha, Postemergence; visual injury after approximately 10 d; 0 to 100 scale where 0 is no effect and 100 is complete control; read-out: Plant response rating, Foxtail, Giant
Method in brief: as §1

[12] = tested on: pigweed (Amaranthus retroflexus); experiment: Test A postemergence; conditions: Amaranthus retroflexus, post-emergence, 240 h, 125 g ai/ha, Postemergence; visual injury after approximately 10 d; 0 to 100 scale where 0 is no effect and 100 is complete control; read-out: Plant response rating, Pigweed
Method in brief: as §1

[13] = tested on: ragweed (common ragweed, Ambrosia elatior); experiment: Test A postemergence; conditions: Ambrosia artemisiifolia, post-emergence, 240 h, 125 g ai/ha, Postemergence; visual injury after approximately 10 d; 0 to 100 scale where 0 is no effect and 100 is complete control; read-out: Plant response rating, Ragweed
Method in brief: as §1

[14] = tested on: ryegrass, Italian (Italian ryegrass, Lolium multiflorum); experiment: Test A postemergence; conditions: Lolium multiflorum, post-emergence, 240 h, 125 g ai/ha, Postemergence; visual injury after approximately 10 d; 0 to 100 scale where 0 is no effect and 100 is complete control; read-out: Plant response rating, Ryegrass, Italian
Method in brief: as §1

[15] = tested on: wheat (Triticum aestivum); experiment: Test A postemergence; conditions: Triticum aestivum, post-emergence, 240 h, 125 g ai/ha, Postemergence; visual injury after approximately 10 d; 0 to 100 scale where 0 is no effect and 100 is complete control; read-out: Plant response rating, Wheat
Method in brief: as §1

[16] = tested on: barnyardgrass (Echinochloa crus-galli); experiment: Test B flooded paddy test; conditions: Echinochloa crus-galli, Flood, 250 g ai/ha; scale of 0 to 100 where 0 is no effect and 100 is complete control; read-out: Barnyardgrass plant response rating
Method in brief: (§2)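 Greenhouse paddy pots with 2-leaf stage plants received compound by direct addition to floodwater 3 cm deep, kept at that level. Scored visually at 13–15 d versus controls (0 no effect; 100 complete control).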

[17] = tested on: ducksalad (Heteranthera limosa); experiment: Test B flooded paddy test; conditions: Heteranthera limosa, Flood, 250 g ai/ha; scale of 0 to 100 where 0 is no effect and 100 is complete control; read-out: Ducksalad plant response rating
Method in brief: as §2

rice (Oryra sativa) = experiment: Test B flooded paddy test; conditions: Oryza sativa, Flood, 250 g ai/ha; scale of 0 to 100 where 0 is no effect and 100 is complete control; read-out: Rice plant response rating
Method in brief: as §2

[18] = tested on: sedge, umbrella (small-flower umbrella sedge, Cyperus difformis); experiment: Test B flooded paddy test; conditions: Cyperus difformis, Flood, 250 g ai/ha; scale of 0 to 100 where 0 is no effect and 100 is complete control; read-out: Sedge, Umbrella plant response rating
Method in brief: as §2

SMILES	pest or weed control at 125 g/ha (Kochia (Kochia scoparia) [1]) [%]	pest or weed control at 500 g/ha (Kochia (Kochia scoparia) [1]) [%]	pest or weed control at 125 g/ha [2] [%]	pest or weed control at 500 g/ha [2] [%]	pest or weed control at 125 g/ha [3] [%]	pest or weed control at 500 g/ha [3] [%]	pest or weed control at 125 g/ha [4] [%]	pest or weed control at 500 g/ha [4] [%]	pest or weed control at 125 g/ha [5] [%]	pest or weed control at 500 g/ha [5] [%]	pest or weed control at 125 g/ha [6] [%]	pest or weed control at 500 g/ha [6] [%]	pest or weed control at 125 g/ha [7] [%]	pest or weed control at 125 g/ha (Kochia (Kochia scoparia) [8]) [%]	pest or weed control at 125 g/ha [9] [%]	pest or weed control at 125 g/ha [10] [%]	Corn plant response rating (crop injury, 0 = no effect, 100 = complete kill) at 125 g/ha (corn (Zea mays)) [%]	pest or weed control at 125 g/ha [11] [%]	pest or weed control at 125 g/ha [12] [%]	pest or weed control at 125 g/ha [13] [%]	other results
CCOc1cccc([C@H]2CNC(=O)[C@@H]2C(=O)Nc2cccc(F)c2F)c1 [Compound 950]	50	60	100	100	60	90	0	0	0	20	20	70	20	0	90	0	0	0	0	0	pest or weed control at 125 g/ha [14]: 20%; plant injury at 125 g/ha [15]: 0%; pest or weed control at 250 g/ha [16]: 65%; pest or weed control at 250 g/ha [17]: 95%; pest or weed control at 250 g/ha (rice (Oryra sativa)): 0%; pest or weed control at 250 g/ha [18]: 0%
CCOc1cccc([C@H]2CNC(=O)[C@@H]2C(=O)Nc2ccc(F)cc2F)c1 [Compound 951]	0	20	90	90	70	70	0	0	0	0	0	0	0	0	70	0	0	0	0	0	pest or weed control at 125 g/ha [14]: 0%; plant injury at 125 g/ha [15]: 0%; pest or weed control at 250 g/ha [16]: 30%; pest or weed control at 250 g/ha [17]: 90%; pest or weed control at 250 g/ha (rice (Oryra sativa)): 0%; pest or weed control at 250 g/ha [18]: 0%
CCOc1cccc([C@H]2CN(C)C(=O)[C@@H]2C(=O)Nc2ccccc2F)c1 [Compound 955]	30	70	100	100	100	100	0	0	0	30	70	60	20	20	90	0	0	80	0	0	pest or weed control at 125 g/ha [14]: 30%; plant injury at 125 g/ha [15]: 0%; pest or weed control at 250 g/ha [16]: 70%; pest or weed control at 250 g/ha [17]: 90%; pest or weed control at 250 g/ha (rice (Oryra sativa)): 0%; pest or weed control at 250 g/ha [18]: 0%
